Measured values as given in ChEMBL document CHEMBL1201862, “PubChem BioAssay data set” (2004).
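In this assay, cells in 96-well plates receive the compound at five concentrations for 48 hours. Endpoints are linearly interpolated between the surrounding concentrations. GI50 marks 50% less growth.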 The source made the active and inactive calls. Cut-off read from the data, not from the text of the source: active = GI50 up to about 1.1 µM and inactive = higher.

Tests used:
Experiment in all cases: DTP human tumour cell line panel, 48 h
UO-31 = system: UO-31
SNB-78 = system: SNB-78
KM-20L2 = system: KM-20L2
M19-MEL = system: M19-MEL
DMS-273 = system: DMS-273
XF498 = system: XF498
HOP-18 = system: HOP-18
SNB-75 = system: SNB-75
NCI-H522 = system: NCI-H522
NCI/ADR-RES = system: NCI/ADR-RES
HT-29 = system: HT-29
DLD-1 = system: DLD-1
SR = system: SR
ACHN = system: ACHN
TK-10 = system: TK-10

| Structure (SMILES) | GI50 (UO-31) | GI50 (SNB-78) | GI50 (KM-20L2) | GI50 (M19-MEL) | GI50 (DMS-273) | GI50 (XF498) | GI50 (HOP-18) | GI50 (SNB-75) | GI50 (NCI-H522) | GI50 (NCI/ADR-RES) | GI50 (HT-29) | GI50 (DLD-1) | GI50 (SR) | GI50 (ACHN) | GI50 (TK-10) |
| --- | --- | --- | --- | --- | --- | --- | --- | --- | --- | --- | --- | --- | --- | --- | --- |
| CCOC(=O)NC(=O)c1cn(CCN(CCO)C(=O)NCCCCCCNC(=O)N(CCO)CCn2cc(C(=O)NC(=O)OCC)c(=O)[nH]c2=O)c(=O)[nH]c1=O | > 100 µM (inactive) | > 100 µM (inactive) | > 100 µM (inactive) | > 100 µM (inactive) | > 100 µM (inactive) | > 100 µM (inactive) | > 100 µM (inactive) | > 100 µM (inactive) | > 100 µM (inactive) | > 100 µM (inactive) | > 61 µM (inactive) | > 100 µM (inactive) |  |  |  |
| CCCCCCCCCOCC(COP(=O)([O-])OCC[N+](C)(C)C)OC (centres undefined) | > 100 µM (inactive) | > 100 µM (inactive) | > 100 µM (inactive) | > 100 µM (inactive) | > 100 µM (inactive) | > 100 µM (inactive) | > 100 µM (inactive) | > 100 µM (inactive) | > 100 µM (inactive) | > 100 µM (inactive) | > 100 µM (inactive) | > 100 µM (inactive) |  |  |  |
| CC(C)NC(=O)OCc1c2c(n(C)c1COC(=O)NC(C)C)-c1ccccc1CC2 | 14.8 µM (inactive) | 11.4 µM (inactive) | 14 µM (inactive) | 9.89 µM (inactive) | 13.9 µM (inactive) | 13.1 µM (inactive) | 2.28 µM (inactive) | 14.1 µM (inactive) | 5.32 µM (inactive) | 15 µM (inactive) | 15.2 µM (inactive) | 11.9 µM (inactive) |  |  |  |
| CCCCCCc1ccc(O)cc1O [HEXYLRESORCINOL] | 24.4 µM (inactive) | > 72.8 µM (inactive) | > 100 µM (inactive) | 42.8 µM (inactive) | > 72.6 µM (inactive) | > 65.3 µM (inactive) | 28.2 µM (inactive) | 28.8 µM (inactive) | 36.1 µM (inactive) | 38.4 µM (inactive) | > 100 µM (inactive) | 72.6 µM (inactive) |  |  |  |
| O=C1CNC(=O)N1 [HYDANTOIN] | > 1120 µM (inactive) | > 1120 µM (inactive) | > 1120 µM (inactive) | > 1120 µM (inactive) | > 1120 µM (inactive) | > 11.2 µM (inactive) | > 1120 µM (inactive) | 177 µM (inactive) | > 1120 µM (inactive) | > 1120 µM (inactive) | > 1120 µM (inactive) | > 1120 µM (inactive) |  |  |  |
| CC(=O)CC(=O)CCC(=O)O [SUCCINYLACETONE] | > 100 µM (inactive) | > 100 µM (inactive) | > 100 µM (inactive) | > 100 µM (inactive) | > 100 µM (inactive) | > 100 µM (inactive) | > 100 µM (inactive) | < 0.01 µM (active) | > 100 µM (inactive) |  | > 100 µM (inactive) | > 100 µM (inactive) | > 100 µM (inactive) | > 100 µM (inactive) | > 100 µM (inactive) |
